The values that follow come from patent US7273862B2, “Aminoalkyl substituted (benzodioxan, benzofuran or benzopyran) derivatives” (Janssen Pharmaceutica N.V., priority 1999, dated 2007).

Molecules are shown by their SMILES. Structures can show the parent of a compound that is named as a salt.

Series [1] relates to fundus of the stomach (gastric tone) in conscious dogs. Nature of the series: Gastric tone measured by an electronic barostat in conscious dogs. Type of series: in vivo, beagle dogs. The following applies: I.D. administration, 0.63 mg/kg, 1 hour observation period, constant pressure of 6 mmHg. The source says: C. Pharmacological Examples C.1. Gastric Tone Measured by an Electronic Barostat in Conscious Dogs
Gastric tone cannot be measured by manometric methods. Therefore an electronic barostat was used. This allows the study of the physiological pattern and regulation of gastric tone in conscious dogs and the influence of test-compounds on this tone.
The barostat consists of an air injection system which is connected by a double-lumen 14-French polyvinyl tube to an ultrathin flaccid polyethylene bag (maximal volume:±700 ml). Variations in gastric tone were measured by recording changes in the volume of air within an intragastric bag, maintained at a constant pressure. The barostat maintains a constant pressure (preselected) within a flaccid air-filled bag introduced into the stomach, changing the volume of air within the bag by an electronic feedback system.
Thus, the barostat measures gastric motor activity (contraction or relaxation) as changes in intragastric volume (decrease or increase resp.) at a constant intragastric pressure. […]
When during a stabilisation period of maximum 90 minutes, the gastric volume is stable during 15 minutes at a constant pressure of 6 mmHg (about 0.81 kPa), the test compound was administered subcutaneously (S.C.), or intraduodenally (I.D.). Test compounds were screened, i.e. changes in gastric volume were measured, usually at 0.63 mg/kg. […]

The term melting point denotes the temperature of the solid-liquid transition.

Molecule `O=C1NCCCN1CC(O)CNCC(O)C1CCc2ccccc2O1` (centres unmarked) (as salt: hydrochloride) (hydrate or solvate) [Compound 15, [S(A)]-1-[3-[[2-(3,4-dihydro-2H-1-benzopyran-2-yl)-2-hydroxyethyl]amino]-2-hydroxypropyl]tetrahydro-2(1H)-pyrimidinone monohydrochloride dihydrate] gave a melting point of 138 °C. With `O=C1NCCCN1CC(O)CNCC(O)C1CCc2ccccc2O1` (centres unmarked) [Compound 15, [S(A)]-1-[3-[[2-(3,4-dihydro-2H-1-benzopyran-2-yl)-2-hydroxyethyl]amino]-2-hydroxypropyl]tetrahydro-2(1H)-pyrimidinone monohydrochloride dihydrate], in series [1], the “Maximum change in volume (mean maximal change in volume on relaxation of the fundus)” value was found to be 5 mL.
